Laboratory results as given in PubChem BioAssay (NCI).
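GI50 marks 50% less growth. TGI: total growth inhibition.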

What was measured:
Assay in all cases: NCI-60 cell line screen, 384-well format
OVCAR-5 ovarian = system: OVCAR-5 ovarian
TK-10 renal = system: TK-10 renal
UACC-257 melanoma = system: UACC-257 melanoma
T-47D breast = system: T-47D breast
HT29 colon = system: HT29 colon
786-0 renal = system: 786-0 renal
SF-295 CNS = system: SF-295 CNS
SK-MEL-2 melanoma = system: SK-MEL-2 melanoma
MDA-MB-231 breast = system: MDA-MB-231 breast
MDA-MB-435 melanoma = system: MDA-MB-435 melanoma
EKVX NSCLC = system: EKVX NSCLC
U251 glioblastoma = system: U251 glioblastoma
NCI-H522 lung = system: NCI-H522 lung
HCC-2998 colon = system: HCC-2998 colon
UACC-62 melanoma = system: UACC-62 melanoma
HL-60(TB) leukemia = system: HL-60(TB) leukemia
SF-539 CNS = system: SF-539 CNS
SK-OV-3 ovarian = system: SK-OV-3 ovarian
OVCAR-8 ovarian = system: OVCAR-8 ovarian
SK-MEL-28 melanoma = system: SK-MEL-28 melanoma
HCT-15 colon = system: HCT-15 colon
SNB-75 CNS = system: SNB-75 CNS
PC-3 prostate = system: PC-3 prostate
RXF 393 renal = system: RXF 393 renal
SF-268 CNS = system: SF-268 CNS
MOLT-4 leukemia = system: MOLT-4 leukemia
HS 578T breast = system: HS 578T breast
BT-549 breast = system: BT-549 breast
OVCAR-4 ovarian = system: OVCAR-4 ovarian
NCI/ADR-RES ovarian = system: NCI/ADR-RES ovarian
M14 melanoma = system: M14 melanoma
CCRF-CEM leukemia = system: CCRF-CEM leukemia
RPMI-8226 leukemia = system: RPMI-8226 leukemia
NCI-H23 lung = system: NCI-H23 lung
OVCAR-3 ovarian = system: OVCAR-3 ovarian
SW-620 colon = system: SW-620 colon
COLO 205 colon = system: COLO 205 colon
ACHN renal = system: ACHN renal
MALME-3M melanoma = system: MALME-3M melanoma
LOX IMVI melanoma = system: LOX IMVI melanoma
KM12 colon = system: KM12 colon
NCI-H460 NSCLC = system: NCI-H460 NSCLC
MCF7 breast = system: MCF7 breast
HOP-62 NSCLC = system: HOP-62 NSCLC
DU-145 prostate = system: DU-145 prostate
A498 renal = system: A498 renal
SK-MEL-5 melanoma = system: SK-MEL-5 melanoma
SN12C renal = system: SN12C renal
NCI-H322M lung = system: NCI-H322M lung

C[C@@H](Oc1ccc2[nH]nc(/C=C/c3cnn(CCO)c3)c2c1)c1c(Cl)cncc1Cl
GI50 (OVCAR-5 ovarian): 111 nM | TGI (OVCAR-5 ovarian): 475 nM | GI50 (TK-10 renal): 98.6 nM | TGI (TK-10 renal): 606 nM | GI50 (UACC-257 melanoma): 1150 nM | TGI (UACC-257 melanoma): 2530 nM | GI50 (T-47D breast): 263 nM | TGI (T-47D breast): > 100000 nM | GI50 (HT29 colon): 278 nM | TGI (HT29 colon): > 100000 nM | GI50 (786-0 renal): 214 nM | TGI (786-0 renal): 1200 nM | GI50 (SF-295 CNS): 71.1 nM | TGI (SF-295 CNS): 2060 nM | GI50 (SK-MEL-2 melanoma): 606 nM | TGI (SK-MEL-2 melanoma): 2130 nM | GI50 (MDA-MB-231 breast): 161 nM | TGI (MDA-MB-231 breast): 3450 nM | GI50 (MDA-MB-435 melanoma): 1140 nM | TGI (MDA-MB-435 melanoma): 2500 nM | GI50 (EKVX NSCLC): 36.8 nM | TGI (EKVX NSCLC): 757 nM | GI50 (U251 glioblastoma): 156 nM | TGI (U251 glioblastoma): 766 nM | GI50 (NCI-H522 lung): 31 nM | TGI (NCI-H522 lung): 554 nM | GI50 (HCC-2998 colon): 399 nM | TGI (HCC-2998 colon): 2120 nM | GI50 (UACC-62 melanoma): 1290 nM | TGI (UACC-62 melanoma): 2590 nM | GI50 (HL-60(TB) leukemia): 31.7 nM | TGI (HL-60(TB) leukemia): 131 nM | GI50 (SF-539 CNS): 23.7 nM | TGI (SF-539 CNS): 154 nM | GI50 (SK-OV-3 ovarian): 114 nM | GI50 (OVCAR-8 ovarian): 174 nM | TGI (OVCAR-8 ovarian): 1450 nM | GI50 (SK-MEL-28 melanoma): 1310 nM | TGI (SK-MEL-28 melanoma): 2630 nM | GI50 (HCT-15 colon): 117 nM | TGI (HCT-15 colon): 1250 nM | GI50 (SNB-75 CNS): 23.4 nM | TGI (SNB-75 CNS): 213 nM | GI50 (PC-3 prostate): 1280 nM | TGI (PC-3 prostate): > 100000 nM | GI50 (RXF 393 renal): 54.4 nM | TGI (RXF 393 renal): 230 nM | GI50 (SF-268 CNS): 124 nM | TGI (SF-268 CNS): 384 nM | GI50 (MOLT-4 leukemia): 19.5 nM | TGI (MOLT-4 leukemia): 48.8 nM | GI50 (HS 578T breast): 29.7 nM | TGI (HS 578T breast): 229 nM | GI50 (BT-549 breast): 61.2 nM | TGI (BT-549 breast): 229 nM | GI50 (OVCAR-4 ovarian): 1500 nM | TGI (OVCAR-4 ovarian): 4750 nM | GI50 (NCI/ADR-RES ovarian): 227 nM | TGI (NCI/ADR-RES ovarian): 1410 nM | GI50 (M14 melanoma): 331 nM | TGI (M14 melanoma): 2040 nM | GI50 (CCRF-CEM leukemia): 25.5 nM | TGI (CCRF-CEM leukemia): 60.5 nM | GI50 (RPMI-8226 leukemia): 34.3 nM | TGI (RPMI-8226 leukemia): 1330 nM | GI50 (NCI-H23 lung): 43.3 nM | TGI (NCI-H23 lung): 333 nM | GI50 (OVCAR-3 ovarian): 74.5 nM | TGI (OVCAR-3 ovarian): 1570 nM | GI50 (SW-620 colon): 60.5 nM | TGI (SW-620 colon): 469 nM | GI50 (COLO 205 colon): 24.8 nM | TGI (COLO 205 colon): 105 nM | GI50 (ACHN renal): 85.8 nM | TGI (ACHN renal): > 100000 nM | GI50 (MALME-3M melanoma): 1120 nM | TGI (MALME-3M melanoma): 2340 nM | GI50 (LOX IMVI melanoma): 70 nM | TGI (LOX IMVI melanoma): 199 nM | GI50 (KM12 colon): < 10 nM | TGI (KM12 colon): 145 nM | GI50 (NCI-H460 NSCLC): 37 nM | TGI (NCI-H460 NSCLC): 1090 nM | GI50 (MCF7 breast): 46.3 nM | TGI (MCF7 breast): 1600 nM | GI50 (HOP-62 NSCLC): 82 nM | TGI (HOP-62 NSCLC): 1080 nM | GI50 (DU-145 prostate): 97.2 nM | TGI (DU-145 prostate): 755 nM | GI50 (A498 renal): 171 nM | TGI (A498 renal): > 100000 nM | GI50 (SK-MEL-5 melanoma): 510 nM | TGI (SK-MEL-5 melanoma): 1920 nM | GI50 (SN12C renal): 47.7 nM | TGI (SN12C renal): 343 nM | GI50 (NCI-H322M lung): 331 nM | TGI (NCI-H322M lung): 2480 nM
